# Values quoted from earlier work in patent US9555015B2, “Antimicrobial compositions and methods for their use” (Dermcare-Vet Pty Ltd, priority 2004, dated 2017).
# Assays:
# [1] = 0.02% chlorhexidine compositions, bladder instillation
# [2] = 0.2% chlorhexidine, external ear, ruptured tympanic membranes
# [3] = especially in concentrations as high as 2%, particularly when the tympanic membrane has been ruptured
smiles,measurement,setting,value
[H]/N=C(\N/C(=N/[H])NCCCCCCNC(=N)NC(=N)Nc1ccc(Cl)cc1)Nc1ccc(Cl)cc1 [chlorhexidine],bladder adverse effect,[1],chemical cystitis resulting in haematuria
same,ototoxic effects,[2],no ototoxic effects
same,ototoxicity,[3],ototoxic
